Laboratory results taken from patent US20110124523A1, “High Throughput Method for Detecting Apoptosis of Embryonic Stages of Metazoan Helminthic Parasites” (INSTITUTE OF LIFE SCIENCES, priority 2009, published 2011).
Where “and” joins values, the source holds several entries; their conditions need not be identical. Equal values may be shown once.

Key:
[1] = test system: embryonic stages of S. digitata; test: Externalization of phosphatidyl serine, Annexin-V-PE staining, flow cytometry; assay type: cell-based, Setaria digitata; conditions: for GMI (Geometric Mean Intensity) of Fluorescence, Annexin-V-PE Staining: 24 hr; for externalization of Phosphatidyl serine (result in words): Microfilariae and eggs, Annexin-V-PE staining
Procedure: Adult female filarial worms Setaria digitata were collected from the peritoneum of cattle, slaughtered at a nearby abattoir in sterile Hanks Balanced Salt Solution (HBSS) medium (Sigma H 2387-1L) and transported to the laboratory in a sterile container. The medium containing 1% glucose (Sigma G 7528), Penicillin 100 units/ml, Streptomycin 100 μg/ml (Sigma P 4333). And Amphotericin-B 0.25 μg/ml (Sigma A 2942) was buffered with NaHCO3 (Sigma S 5761). About 5 to 7 worms were taken in a petridish, washed three times in medium, dissected into small pieces in 10 ml of medium under sterile conditions and incubated at 37° C. for 30 minutes to allow the release of embryonic stages (eggs and microfilariae) into the medium. The embryonic stages were harvested into sterile 15 ml. centrifuge tubes and washed three times by centrifuging at 300 g for 10 minutes each with medium and the final pellet was suspended in 1 ml. of RPMI-1640 medium (Sigma R 8005) supplemented with 10% FBS (Sigma F 2442) The number of embryonic stages of S. digitata in the above preparation were counted using light microscope, and the suspension was taken in RPMI-1640 medium containing 10% FBS at 1×10^5 embryonic stages/ml. One ml. each was dispensed into individual wells of a 24 well tissue culture plate. One set of wells was taken as untreated control containing only medium with 10% FBS. […] Motility of the Mf was scored under an inverted microscope. After appropriate treatment and incubation, each set of the cultured embryonic stages of S. digitata were harvested from the 24 well tissue culture plate separately in 15 ml. sterile centrifuge tubes, washed with PBS twice and stained as per requirement following manufacturer's instructions as described below. This was followed by two times washing with PBS and final suspension of the stained embryonic stages was taken in 0.5 ml of sheath fluid (BD Biosciences 342003) before their acquisition in the flow cytometer (BD FACS Calibur, Becten and Dickinson, USA). Analysis was performed on 10,000-acquired events depicted as Dot Plots and Histogram Plots using Cellquest Pro soft ware. All plots were representative of at least 3 experiments. The distinctly clustered populations obtained consistently in the Dot plots for the intra uterine embryonic stages of S. digitata (FIG. 1 a) were gated for Mfs (R-1) and eggs (R-2 and R-3) and analyzed for different assays for apoptosis as described below. The externalization of phosphatidyl serine was detected by staining the embryonic stages with Annexin-V-PE (BD Biosciences 556421) as per the instructions of the manufacturer. Briefly, the embryonic stages of S. digitata were subjected to various treatments in culture for 24 hrs. After the said period of incubation the embryonic stages were harvested, washed with ice cold PBS twice and resuspended in 100 μl of 1× Annexin-V binding buffer (BD Biosciences 556454) at 1×10^5 embryonic stages per ml. to which 5 μl of Annexin-V-PE was added. After 15 minutes of Incubation in dark at room temperature another 400 μl of 1× Annexin-V binding buffer was added to the above suspension. The resulting 500 μl suspension of Annexin-V-PE stained embryonic stages was then acquired and analyzed by flow cytometer.

[2] = test system: embryonic stages of S. digitata; test: Intra cellular cleavage of caspase substrate PARP, anti cleaved PARP-PE staining; assay type: cell-based, Setaria digitata; conditions: 24 hr
Procedure: Adult female filarial worms Setaria digitata were collected from the peritoneum of cattle, slaughtered at a nearby abattoir in sterile Hanks Balanced Salt Solution (HBSS) medium (Sigma H 2387-1L) and transported to the laboratory in a sterile container. The medium containing 1% glucose (Sigma G 7528), Penicillin 100 units/ml, Streptomycin 100 μg/ml (Sigma P 4333). And Amphotericin-B 0.25 μg/ml (Sigma A 2942) was buffered with NaHCO3 (Sigma S 5761). About 5 to 7 worms were taken in a petridish, washed three times in medium, dissected into small pieces in 10 ml of medium under sterile conditions and incubated at 37° C. for 30 minutes to allow the release of embryonic stages (eggs and microfilariae) into the medium. The embryonic stages were harvested into sterile 15 ml. centrifuge tubes and washed three times by centrifuging at 300 g for 10 minutes each with medium and the final pellet was suspended in 1 ml. of RPMI-1640 medium (Sigma R 8005) supplemented with 10% FBS (Sigma F 2442) The number of embryonic stages of S. digitata in the above preparation were counted using light microscope, and the suspension was taken in RPMI-1640 medium containing 10% FBS at 1×10^5 embryonic stages/ml. One ml. each was dispensed into individual wells of a 24 well tissue culture plate. One set of wells was taken as untreated control containing only medium with 10% FBS. […] Motility of the Mf was scored under an inverted microscope. After appropriate treatment and incubation, each set of the cultured embryonic stages of S. digitata were harvested from the 24 well tissue culture plate separately in 15 ml. sterile centrifuge tubes, washed with PBS twice and stained as per requirement following manufacturer's instructions as described below. This was followed by two times washing with PBS and final suspension of the stained embryonic stages was taken in 0.5 ml of sheath fluid (BD Biosciences 342003) before their acquisition in the flow cytometer (BD FACS Calibur, Becten and Dickinson, USA). Analysis was performed on 10,000-acquired events depicted as Dot Plots and Histogram Plots using Cellquest Pro soft ware. All plots were representative of at least 3 experiments. The distinctly clustered populations obtained consistently in the Dot plots for the intra uterine embryonic stages of S. digitata (FIG. 1 a) were gated for Mfs (R-1) and eggs (R-2 and R-3) and analyzed for different assays for apoptosis as described below. After in vitro culture for 24 hours with apoptosis inducing reagents the embryonic stages were harvested in 15 ml. sterile centrifuge tubes and fixed for 60 minutes at 0° C. in 1% paraformaldehyde (Sigma P 6148) in PBS. The suspension was washed first with PBS and then with 1× permeabilisation buffer (eBioscience 00-8333-56) and finally resuspended in 100 μl of 1× permeabilisation buffer at 1×10^5 embryonic stages per ml. This suspension was then incubated for 45 minutes with 20 μl of anti cleaved PARP-PE (BD Biosciences 552933). This was followed by washing with PBS twice and analysis by Flow cytometer.

Structure (SMILES)	GMI (Geometric Mean Intensity) of Fluorescence, Annexin-V-PE Staining ([1]; Eggs, 1 μM)	externalization of Phosphatidyl serine (result in words) [1]	GMI (Geometric Mean Intensity) of Fluorescence, Annexin-V-PE Staining ([1]; Microfilariae, 1 μM)	GMI (Geometric Mean Intensity) of Fluorescence, PARP Cleavage ([2]; Eggs, 1 μM)	GMI (Geometric Mean Intensity) of Fluorescence, PARP Cleavage ([2]; Microfilariae, 1 μM)	GMI (Geometric Mean Intensity) of Fluorescence, Annexin-V-PE Staining ([1]; Eggs, 10 μM)	GMI (Geometric Mean Intensity) of Fluorescence, Annexin-V-PE Staining ([1]; Microfilariae, 10 μM)	GMI (Geometric Mean Intensity) of Fluorescence, PARP Cleavage ([2]; Eggs, 10 μM)	GMI (Geometric Mean Intensity) of Fluorescence, PARP Cleavage ([2]; Microfilariae, 10 μM)
CN[C@@H]1C[C@H]2O[C@@](C)([C@@H]1OC)n1c3ccccc3c3c4c(c5c6ccccc6n2c5c31)C(=O)NC4 [Staurosporine]	27.59 and 28.53 and 30.63	did not mediate such effects on Phosphatidyl serine externalization	7.24 and 8.03 and 8.52	63.95 and 66.56 and 70.27	6.57 and 6.21 and 5.49	–	–	–	–
CC1=CC(=O)c2c(O)cccc2C1=O [Plumbagin]	–	dose dependent externalization of Phosphatidyl serine was observed	–	–	–	81.25 and 85.22 and 89.36	11.95 and 12.52 and 13.56	102.15 and 109.36 and 110.25	10.01 and 11.32 and 9.67
OO [H2O2]	–	dose dependent externalization of Phosphatidyl serine was observed	–	–	–	30.95 and 33.55 and 35.75	9.75 and 11.02 and 10.35	70.72 and 75.32 and 78.52	8.39 and 7.99 and 8.02
